ChEMBL document CHEMBL5131392, “A novel ICG-labeled cyclic TMTP1 peptide dimer for sensitive tumor imaging and enhanced photothermal therapy in vivo” (Eur J Med Chem, 2022)
Activity calls are given as the source filed them. The calls are words filed in the database; no cut-off is given here. Bridge positions count the residues as written; N and C are the ends. Square brackets hold non-standard residues; d marks the D form. Peptide text beside a SMILES is read from it. I, II: the chains in the order shown. * marks the point of attachment. X1 = CC1(C)C(/C=C/C=C/C=C/C=C2/N(CCCCCC(=O)*)c3ccc4ccccc4c3C2(C)C)=[N+](CCCCS(=O)(=O)[O-])c2ccc3ccccc3c21; PEG4 = NCCOCCOCCOCCOCCC(=O)O

What was measured:
4T1 [1] = test: Cytotoxicity against mouse 4T1 cells assessed as cell viability at higher concentration incubated for 24 hrs by CCK-8 assay relative to control; format: functional
4T1 [2] = test: Upregulation of XPNPEP expression in mouse 4T1 cells by Western blot analysis; format: functional, cell-based
[3] = Drug uptake in mouse 4T1 cells assessed as increase in fluorescence signal measured after 1 hr by flow cytometry analysis; format: ADME, cell-based; conditions: 4t1, 1 h
[4] = Biodistribution in BALB/c mouse assessed as increase in fluorescence signal at 30 uM, iv measured after 30 mins by NIR fluorescence imaging analysis; format: ADME, organism-based; conditions: in vivo, 0.5 h
[5] = Drug accumulation in BALB/c mouse liver assessed as increase in fluorescence intensity at 30 uM, iv measured after 30 mins by NIR fluorescence imaging analysis; format: ADME, organism-based; conditions: in vivo, 0.5 h
[6] = Drug accumulation in BALB/c mouse kidney assessed as increase in fluorescence intensity at 30 uM, iv measured after 2 hrs by NIR fluorescence imaging analysis; format: ADME, organism-based; conditions: in vivo
[7] = AUC 0 to t in Sprague-Dawley rat at 100 uM, iv measured up to 24 hrs by IVIS spectrum imaging analysis; format: ADME, organism-based; design: time < 24 hrs, dose 100 µM, route iv; conditions: in vivo
[8] = MRT 0 to t in Sprague-Dawley rat at 100 uM, iv measured up to 24 hrs by IVIS spectrum imaging analysis; format: ADME, organism-based; conditions: in vivo
[9] = Half life in Sprague-Dawley rat at 100 uM, iv measured up to 24 hrs by IVIS spectrum imaging analysis; format: ADME, organism-based; conditions: in vivo
[10] = Cmax in Sprague-Dawley rat at 100 uM, iv measured up to 24 hrs by IVIS spectrum imaging analysis; format: ADME, organism-based; design: time < 24 hrs, dose 100 µM, route iv; conditions: in vivo
[11] = Drug uptake in tumor of mouse 4T1 cells allografted in BALB/c mouse assessed as increase in fluorescence signal at 30 uM, iv measured after 12 to 48 hrs by IVIS spectrum in vivo imaging analysis; format: ADME, organism-based, Neoplasm; conditions: time 12-48 hrs
[12] = Drug uptake in tumor of mouse 4T1 cells allografted in BALB/c mouse assessed as increase in ratio of fluorescence signal in tumor to normal tissue at 30 uM, iv measured after 12 to 48 hrs by NIR fluorescence imaging analysis; format: ADME, organism-based, Neoplasm; conditions: in vivo, time 12-48 hrs
[13] = Drug uptake in tumor of mouse 4T1 cells allografted in BALB/c mouse assessed as increase in fluorescence signal at 30 uM, iv measured after 12 hrs by NIR fluorescence imaging analysis; format: ADME, organism-based, Neoplasm; conditions: in vivo
[14] = Drug uptake in lymph node of mouse 4T1 cells allografted in BALB/c mouse assessed as increase in fluorescence signal at 30 uM, iv measured after 24 to 48 hrs by NIR fluorescence imaging analysis; format: ADME, organism-based; conditions: in vivo, time 24-48 hrs
[15] = Drug uptake in lymph node of mouse 4T1 cells allografted in BALB/c mouse assessed as increase in ratio of fluorescence signal in tumor lymph node to normal lymph node at 30 uM, iv measured up to 48 hrs by NIR fluorescence imaging analysis; format: ADME, organism-based; conditions: in vivo
4T1 [16] = test: Antitumor activity in mouse 4T1 cells allografted in BALB/c mouse assessed as increase in temperature of tumor site at 100 uM, iv measured after 12 hrs followed by 2.5 W/cm2 NIR laser irradiation for 3 mins by infrared thermal imaging analysis; format: functional
4T1 [17] = test: Antitumor activity against mouse 4T1 cells allografted in BALB/c mouse assessed as inhibition of tumor growth at 100 uM, iv treated for 12 hrs followed by 2.5 W/cm2 NIR laser irradiation for 3 mins and measured every 2 days; format: functional, organism-based; conditions: time 2.0 day
[18] = Toxicity in BALB/c mouse allografted with mouse 4T1 cells assessed as change in body weight at 100 uM, iv treated for 12 hrs followed by 2.5 W/cm2 NIR laser irradiation for 3 mins and measured every 2 days; format: organism-based; conditions: in vivo, 48 h, time 2 day
4T1 [19] = test: Induction of apoptosis in mouse 4T1 cells allografted in BALB/c mouse assessed as increase in total apoptotic cells at 100 uM, iv measured after 12 hrs followed by 2.5 W/cm2 NIR laser irradiation for 3 mins by hematoxylin and eosin staining based analysis; format: functional, organism-based
4T1 [20] = test: Induction of apoptosis in mouse 4T1 cells allografted in BALB/c mouse assessed as increase in total necrotic cells at 100 uM, iv measured after 12 hrs followed by 2.5 W/cm2 NIR laser irradiation for 3 mins by hematoxylin and eosin staining based analysis; format: functional, organism-based
4T1 [21] = test: Induction of apoptosis in mouse 4T1 cells allografted in BALB/c mouse assessed as increase in total apoptotic cells at 100 uM, iv measured after 12 hrs followed by 2.5 W/cm2 NIR laser irradiation for 3 mins by TUNEL staining based analysis; format: functional, organism-based
[22] = Toxicity in BALB/c mouse allografted with mouse 4T1 cells assessed as histopathological change in heart at 100 uM, iv measured after 12 hrs followed by 2.5 W/cm2 NIR laser irradiation for 3 mins by hematoxylin and eosin staining based analysis; format: organism-based; conditions: in vivo
[23] = Toxicity in BALB/c mouse allografted with mouse 4T1 cells assessed as histopathological change in liver at 100 uM, iv measured after 12 hrs followed by 2.5 W/cm2 NIR laser irradiation for 3 mins by hematoxylin and eosin staining based analysis; format: organism-based; conditions: in vivo
[24] = Toxicity in BALB/c mouse allografted with mouse 4T1 cells assessed as histopathological change in spleen at 100 uM, iv measured after 12 hrs followed by 2.5 W/cm2 NIR laser irradiation for 3 mins by hematoxylin and eosin staining based analysis; format: organism-based; conditions: in vivo
[25] = Toxicity in BALB/c mouse allografted with mouse 4T1 cells assessed as histopathological change in lung at 100 uM, iv measured after 12 hrs followed by 2.5 W/cm2 NIR laser irradiation for 3 mins by hematoxylin and eosin staining based analysis; format: organism-based; conditions: in vivo
[26] = Toxicity in BALB/c mouse allografted with mouse 4T1 cells assessed as histopathological change in kidney at 100 uM, iv measured after 12 hrs followed by 2.5 W/cm2 NIR laser irradiation for 3 mins by hematoxylin and eosin staining based analysis; format: organism-based; conditions: in vivo
[27] = Drug uptake in tumor of mouse 4T1 cells allografted in BALB/c mouse assessed as XPNPEP2 expression by […] based analysis; format: ADME, Neoplasm

Structure (SMILES): CC(C)[C@@H]1NC(=O)[C@H](CC(N)=O)NC(=O)CNC(=O)[C@@H](NC(=O)CNC(=O)CCOCCOCCOCCOCCNC(=O)CC[C@H](NC(=O)CCCCCN2/C(=C/C=C/C=C/C=C/C3=[N+](CCCCS(=O)(=O)[O-])c4ccc5ccccc5c4C3(C)C)C(C)(C)c3c2ccc2ccccc32)C(=O)NCCOCCOCCOCCOCCC(=O)NCC(=O)N[C@H]2CSSC[C@@H](C(=O)O)NC(=O)CNC(=O)[C@H](CCC(N)=O)NC(=O)[C@H](CCCNC(=N)N)NC(=O)[C@H](C(C)C)NC(=O)[C@H](C(C)C)NC(=O)[C@H](CC(N)=O)NC(=O)CNC2=O)CSSC[C@@H](C(=O)O)NC(=O)CNC(=O)[C@H](CCC(N)=O)NC(=O)[C@H](CCCNC(=N)N)NC(=O)[C@H](C(C)C)NC1=O (I: X1-E[PEG4]GCGNVVRQGC-OH / II: [PEG4]GCGNVVRQGC-OH; amide I:1-II:N; disulfide I:4-I:12, II:3-II:11)
- cell viability (4T1 [1]): >90%
- Activity (4T1 [2]): Active
- Drug uptake [3]: Active
- Drug uptake [4]: Active
- Drug uptake [5]: Active
- Drug uptake [6]: Active
- AUC(0-t) at 24 h, 100 µM [7]: 1.29 µM·h
- MRT last at 24 h, 100 µM [8]: 5.77 h
- half-life at 100 µM [9]: 5.9 h
- Cmax at 100 µM [10]: 212 nM
- Drug uptake [11]: Active
- T/C [12]: 40
- Drug uptake [13]: Active
- Drug uptake [14]: Active
- Drug uptake [15]: Active
- T (4T1 [16]): 51 °C
- Activity (4T1 [17]): Active
- Activity [18]: Non-Toxic
- Activity (4T1 [19]): Active
- Activity (4T1 [20]): Active
- Activity (4T1 [21]): Active
- Activity [22]: Non-Toxic
- Activity [23]: Non-Toxic
- Activity [24]: Non-Toxic
- Activity [25]: Non-Toxic
- Activity [26]: Non-Toxic
- Drug uptake [27]: Active

Structure (SMILES): CC(C)[C@@H]1NC(=O)[C@H](CC(N)=O)NC(=O)CNC(=O)[C@@H](NC(=O)CNC(=O)CCOCCOCCOCCOCCNC(=O)CCCCCN2/C(=C/C=C/C=C/C=C/C3=[N+](CCCCS(=O)(=O)[O-])c4ccc5ccccc5c4C3(C)C)C(C)(C)c3c2ccc2ccccc32)CSSC[C@@H](C(=O)O)NC(=O)CNC(=O)[C@H](CCC(N)=O)NC(=O)[C@H](CCCNC(=N)N)NC(=O)[C@H](C(C)C)NC1=O ({X1-PEG4}-GCGNVVRQGC-OH; disulfide 2-10)
- Drug uptake [11]: Active
- T (4T1 [16]): 47 °C
- Activity (4T1 [17]): Active

Structure (SMILES): CC1(C)C(/C=C/C=C/C=C/C=C2\N(CCCCS(=O)(=O)[O-])c3ccc4ccccc4c3C2(C)C)=[N+](CCCCS(=O)(=O)[O-])c2ccc3ccccc3c21.[Na+] [INDOCYANINE GREEN]
- AUC(0-t) at 24 h, 100 µM [7]: 0.0175 µM·h
- MRT last at 24 h, 100 µM [8]: 0.251 h
- half-life at 100 µM [9]: 0.4 h
- Cmax at 100 µM [10]: 57.6 nM
- T (4T1 [16]): 40 °C
